Measurements from US7572939B2, “Type of soluble pentacene precursor” (Academia Sinica, priority 2006, dated 2009).
Where two headings read alike, the source gives them in different places.

Legend:
Type in all cases: physicochemical
[1] = Solubility in organic solvents
Protocol: Compound (3) is quite soluble in dichloromethane benzene, toluene, acetone, and tetrahydrofuran (all in the range of ˜2.0 mM i.e. about 0.7 mg/mL solvent) but is not soluble in methanol, ethanol, or acetonitrile. Compound (3) can be applied to a surface of an article by spin coating, spray coating, screen printing or ink-jet printing to form a film. The film can be dried in any of the conventional ways including air drying or with mild heating, i.e. below about 120° C. Subsequent to drying, a chemical reaction is initiated preferably by the application of heat resulting, inter alia, in the driving off of volatile components including CO.

[2] = Thermal stability by TGA (thermal gravimetric analysis) and DSC
Protocol: Thermal initiated carbonyl extrusion can be depicted by both TGA (thermal gravimetric analysis) and DSC (differential scanning calorimetry) studies. […] The decarbonylation appears at 150° C. to yield pentacene, which decomposes at about 360° C. as measured by 5% weight loss. During the extrusion, Compound (3) loses about 9% weight corresponding to the weight ratio of CO in the molecule. The pentacene thus produced is stable up to temperatures of about 350° C. Above about 350° C., Compound (3) starts to experience thermal decomposition.
General: ^1H^13C NMR spectra were obtained on a Bruker AMX-400 spectrometer. Infrared spectra were recorded on a Perkin-Elmer 682 infrared spectrophotometer. Ultraviolet-visible absorption Spectra were recorded on a HP 8453 spectrophotometer. Differential scanning calorimetry was done on a Perkin-Elmer model DSC7 instrument. Thermal gravimetric analysis was performed by a Perkin-Elmer TGA7 analyzer.

[3] = Stability at ambient conditions

| Structure (SMILES) | solubility ([1]; in methanol, ethanol or acetonitrile) | solubility ([1]; organic solvent or mixture, in dichloromethane, benzene, toluene, acetone and tetrahydrofuran (all in this range), read-out: solubility) | solubility ([1]; organic solvent or mixture, in dichloromethane, benzene, toluene, acetone and tetrahydrofuran, per mL solvent, read-out: solubility) | temperature above which thermal decomposition starts ([2]; TGA) | fragmentation (decarbonylation) temperature ([2]; TGA/DSC, 10° C./min heating rate, CO extrusion to yield pentacene) | weight loss during CO extrusion ([2]; TGA, corresponds to weight ratio of CO in the molecule) | stability [3] | decomposition temperature ([2]; TGA, as measured by 5% weight loss) | temperature up to which stable ([2]; TGA, pentacene produced from the precursor) |
| --- | --- | --- | --- | --- | --- | --- | --- | --- | --- |
| O=C1C2c3cc4ccccc4cc3C1c1cc3ccccc3cc12 [Compound (3), 6,13-dihydro-6,13-methanopentacene-15-one] | not soluble | ~2000 µM | ~700 µg/mL | Above 350 °C | 150 °C | about 9% | stable |  |  |
| c1ccc2cc3cc4cc5ccccc5cc4cc3cc2c1 [pentacene] |  |  |  |  |  |  |  | about 360 °C | about 350 °C |
